What was measured:
[1] = target: T1, Arabidopsis thaliana HPPD "SEQ ID No. 10" (Arabidopsis thaliana, UniProt P93836); assay: HPLC assay of HPPD activity, in vitro kinetic properties; type: biochemical; settings: substrate HPP varied between 10 and 400 μM
T1 construct: Preparation of Synechococcus sp; Ala + 6xHis (N); made in house; host or cells: E. coli K-12 BL21 (pQE30-AtHPPD)
T1 sequence (P93836 with tags, fused parts or gaps): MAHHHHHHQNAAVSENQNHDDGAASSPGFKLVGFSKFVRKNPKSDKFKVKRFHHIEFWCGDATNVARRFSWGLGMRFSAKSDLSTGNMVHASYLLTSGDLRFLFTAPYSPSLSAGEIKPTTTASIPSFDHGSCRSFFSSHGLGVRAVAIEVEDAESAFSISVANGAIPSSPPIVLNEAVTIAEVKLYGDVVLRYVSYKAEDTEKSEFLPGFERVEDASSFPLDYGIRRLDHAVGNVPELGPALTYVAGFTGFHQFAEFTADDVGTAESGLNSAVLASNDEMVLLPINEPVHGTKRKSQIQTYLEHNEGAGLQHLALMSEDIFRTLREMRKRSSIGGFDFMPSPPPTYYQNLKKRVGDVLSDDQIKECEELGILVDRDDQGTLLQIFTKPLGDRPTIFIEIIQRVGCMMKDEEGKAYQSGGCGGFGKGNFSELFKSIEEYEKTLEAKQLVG
Method: (§1) Km, Vmax, and kcat values for different HPPD enzyme preparations and Ki, K1=Kon, and K−1=Koff for different HPPD inhibitors were determined using a HPLC assay for measurements of HPPD activity. […] All assays were started by the addition of HPPD enzyme to the assay mixture and stopped at a series of times between 0 and 240 s by addition of 200 μl of the reaction mixture to reaction assay tubes containing 20 μl 10% perchloric acid. Precipitated protein was pelleted by a 5 minute centrifugation at 10,000 g.
For Km and Vmax value determinations the initial rates of the HPPD reaction at different substrate concentrations were determined from plots of HGA formed versus time and fitted to the Michaelis-Menten equation for unireactant enzymes using the ID Business Solutions Ltd. (idbs.com) XLfit software suite.
(§2) In below given table 1, “Km” (Michaelis-Menten constant) means the kinetic parameter that is used to characterise an enzyme, and it is defined as the concentration of substrate that permits half maximal rate of the reaction. Km is further defined as the substrate concentration at which the reaction rate reaches half of its maximum value (Vmax/2) where Vmax has the meaning of being the maximum velocity of the reaction.
(§3) Kon=K1 equals the association rate constant of the […] binding and Koff=K−1 equals the rate constant of the enzyme-inhibitor complex dissociation. Ki defines the inhibition constant.

[2] = test system: Synechococcus sp. HPPD "SEQ ID No. 5"; assay: as above; type: biochemical
Method: as §1, with “g. […] A standard set of concentrations of HGA were used to provide a standard curve in order to calibrate the 292 nm absorbance of the HGA peak versus HGA concentration.” for “g.”
For Km and Vmax value determinations the initial rates of the HPPD reaction at different substrate concentrations were determined from plots of HGA formed versus time and fitted to the Michaelis-Menten equation for unireactant enzymes using the ID Business Solutions Ltd. (idbs.com) XLfit software suite. For the determination of Ki, K1=Kon, and K=−1=Koff values the time-courses of the HPPD reaction at different inhibitor concentrations were fitted to the equations for Mechanism A, competitive inhibition, for tight-binding inhibitors (Cha, S. (1975) Tight-binding inhibitors-I. Kinetic behaviour. Biochemical Pharmacology 24, 2177-2185) using the ID Business Solutions Ltd. XLfit software suite
as §2, §3

[3] = target: T1, Arabidopsis thaliana HPPD "SEQ ID No. 10"; assay: HPPD activity in presence of HPPD inhibitors (pI50, % inhibition); type: biochemical
Text: (§4) In this content, pI50-value means the log value of the concentration of inhibitor necessary to inhibit 50% of the enzyme activity in molar concentration.

[4] = test system: Synechococcus sp. HPPD "SEQ ID No. 5"; assay: as above; type: biochemical; settings: for pI50: 2 mM HPP, 3 minutes incubation; for percentage of inhibition: 5.0 × 10^−6 M inhibitor, compared to activity in absence of inhibitor
Text: as §4

[5] = test system: transgenic soybean shoots (FMP38); assay: Soybean shoot greening under isoxaflutole selection; type: in vivo; settings: isoxaflutole as selection marker
Text: (§5) Soybean transformation is achieved using methods well known in the art, such as the one described using the Agrobacterium tumefaciens mediated transformation soybean half-seed explants described by Paz et al. (2006, Plant cell Rep. 25:206). Transformants were identified using Isoxaflutole as selection marker. The appearance of green shoots was observed, and documented as an indicator of tolerance to the herbicide isoxaflutole. […] Tolerant green shoots were transferred to rooting media or grafted. Rooted plantlets are transferred to the glasshouse after an acclimation period.

wild-type soybean shoots = assay: as above; type: in vivo; settings: same amount of isoxaflutole
Text: as §5

[6] = test system: T1 tobacco plants carrying FMP38e; assay: Glasshouse response to bicyclopyrone, injury classes; type: in vivo, Nicotiana tabacum; settings: 100 g AI/ha, 7 DAT
Text: (§6) Seeds of wild type tobacco plants and T1 tobacco plants carrying the gene from Synechococcus sp. FMP38e coding for HPPD were sown on MS media (Murashige and Skoog 1964) supplemented with […] kanamycin. After 4 weeks, rooted green plantlets were transferred to soil and grown for 3 weeks in the glasshouse as described above then sprayed with a mixture containing bicyclopyrone (100 g AI/ha), ammonium sulfate and methyl ester raps oil. The plants were classified in two categories based on the phenotype developed in response to the herbicide seven days after the treatment. […] In this case, only plants containing at least one T-DNA were exposed to the herbicidal treatment.

wild type tobacco plants = assay: as above; type: in vivo, Nicotiana tabacum; settings: 100 g AI/ha, 7 DAT; line WT
Text: as §6

[7] = substrate HPP varied between 10 and 400 μM

O=C(O)C(=O)Cc1ccc(O)cc1 [HPP, para-hydroxyphenylpyruvate]
Km [1]: 6.3 µM
Vmax [1]: 1.2 µM
Km [2, 7]: 5.1 µM
Vmax [2, 7]: 1.2 µM

Cc1nn(C)c(O)c1C(=O)c1ccc(C(F)(F)F)cc1S(C)(=O)=O [Pyrasulfotole]
pI50 ([3]; 2 mM HPP, 3 minutes incubation): 5.4
percentage of inhibition ([3]; 5.0 × 10^−6 M inhibitor, compared to activity in absence of inhibitor): 69%
pI50 [4]: 4.7
percentage of inhibition [4]: 16%

CS(=O)(=O)c1cc(C(F)(F)F)ccc1C(=O)c1cnoc1C1CC1 [Isoxaflutole, (5-cyclopropyl-4-isoxazolyl)[2-(methylsulfonyl)-4-(trifluoromethyl)phenyl]methanone]
transgenic tested shoots showing normal greening [5]: 0.6%
bleaching of shoots (wild-type soybean shoots): entirely bleached

COCCOCc1nc(C(F)(F)F)ccc1C(=O)C1=C(O)C2CCC(C2)C1=O (stereo not drawn) [Bicyclopyrone, 4-hydroxy-3-[[2-[(2-methoxyethoxy)methyl]-6-(trifluoromethyl)-3-pyridinyl]carbonyl]bicyclo[3.2.1]oct-3-en-2-one]
pI50 [4]: 5.0
percentage of inhibition [4]: 19%
% of tolerant plant ([6]; line 34): 17%
Class I (injury: 0-30%) ([6]; line 34): 59
Class II (injury: 31-100%) ([6]; line 34): 6
% of tolerant plant ([6]; line 39): 46%
Class I (injury: 0-30%) ([6]; line 39): 100
Class II (injury: 31-100%) ([6]; line 39): 48
% of tolerant plant ([6]; line 197): 15%
Class I (injury: 0-30%) ([6]; line 197): 89
Class II (injury: 31-100%) ([6]; line 197): 15
% of tolerant plant (wild type tobacco plants): 0%
Class I (injury: 0-30%) (wild type tobacco plants): 0
Class II (injury: 31-100%) (wild type tobacco plants): 12

CS(=O)(=O)c1ccc(C(=O)C2C(=O)CCCC2=O)c(Cl)c1 [Sulcotrione, 2-[2-chloro-4-(methylsulfonyl)benzoyl]-1,3-cyclohexanedione]
percentage of inhibition [4]: 19%

CS(=O)(=O)c1cc(C(F)(F)F)ccc1C(=O)C(C#N)C(=O)C1CC1 (stereo not drawn) [Diketonitrile, 2-cyano-3-cyclopropyl-1-(2-methylsulphonyl-4-trifluoromethylphenyl)-propane-1,3-dione]
Ki ([2]; 2 mM HPP): 12 µM
pI50 [4]: 5.5
percentage of inhibition [4]: 62%

CS(=O)(=O)c1ccc(C(=O)C2C(=O)CCCC2=O)c([N+](=O)[O-])c1 [Mesotrione, 2-[4-(methylsulfonyl)-2-nitrobenzoyl]-1,3-cyclohexanedione]
pI50 [4]: 5.4
percentage of inhibition [4]: 47%

CS(=O)(=O)c1ccc(C(=O)C2C(=O)CCCC2=O)c(Cl)c1COCC1CCCO1 (stereo not drawn) [Tefuryltrione, 2-[2-chloro-4-(methylsulfonyl)-3-[[(tetrahydro-2-furanyl)methoxy]methyl]benzoyl]-1,3-cyclohexanedione]
pI50 [4]: 5.6
percentage of inhibition [4]: 72%

Cc1ccc(C(=O)COc2c(C(=O)c3ccc(Cl)c(C)c3Cl)c(C)nn2C)cc1 [Benzofenap]
percentage of inhibition [4]: 31%

Source: patent US20150159167A1, “Plants Tolerant to HPPD Inhibitor Herbicides” (Bayer CropScience AG, priority 2009, published 2015)
